Laboratory results published in USRE38792E1, “Modified bacterial cellulose” (Ajinomoto Co., Ltd., priority 1996, dated 2005).

What was measured:
[1] = tested on: Acetobacter pasteurianus FERM BP-4176; experiment: Shape/length of cellulose-producing bacterium by optical microscope; type: cell-based
Description: (§1) Seed culture was carried out by placing 20 ml of the above culture medium in a 100 ml flask with baffle, inoculating Acetobacter pasteurianus FERM BP-4176, and then culturing at 25° C. for 3 days with stirring at 200 rpm. The culture medium was crushed by a blender, and added to a main culture medium having the above composition in a concentration of 2% seed culture.
(§2) The main culture was carried out by static culture at 25° C. During the culture, culture solution and bacterial cellulose were withdrawn, and the morphology of bacteria was observed by an optical microscope, an electron microscope and an atomic force microscope.
(§3) Six main culture media were used, and nalidixic acid (NA) was added thereto in a concentration of 0.01 mM, 0.05 mM, 0.1 mM, 0.2 mM or 1.0 mM except one medium to which NA was not added.
Acetobacter pasteurianus FERM BP-4176 was cultured in static culture, and the culture solution and bacterial cellulose were withdrawn, and the shape of bacteria was observed by the optical microscope, the electron microscope and the atomic force microscope, similar to Example 1, except that chloramphenicol was used instead of nalidixic acid.
That is, six main culture media having the aforementioned composition were used, and chloramphenicol (CP) was added thereto in a concentration of 0.1 mM, 0.2 mM, 0.3 mM, 0.5 mM or 1.0 mM except one medium to which CP was not added.
Acetobacter pasteurianus FERM BP-4176 was cultured in static culture, and the culture solution and bacterial cellulose were withdrawn, and the form of bacteria was observed by the optical microscope, the electron microscope and the atomic force microscope, similar to Example 1, except that chloramphenicol was used instead of nalidixic acid.
That is, four main culture media having the aforementioned composition were used, and dithiothreitol (DTT) was added thereto in a concentration of 0.5 mM, 1.0 mM or 2.0 mM except one medium to which DTT was not added.
Acetobacter pasteurianus FERM BP-4176 was cultured in agitation culture at 180 rpm instead of static culture, and the culture solution and bacterial cellulose were withdrawn, and the shape of bacteria was observed by the optical microscope, the electro microscope and the atomic force microscope, similar to Example 1.
That is, […] main culture media having the aforementioned composition were used, and nalidixic acid (NA) was added thereto in a concentration of 0.10 mM, or 0.20 mM, except one medium to which NA was not added.

[2] = tested on: Acetobacter pasteurianus FERM BP-4176; experiment: Production of bacterial cellulose in static culture; type: cell-based; details: NA 0.01 to 1.0 mM
Description: The culture medium used was composed of 50.0 g/l sucrose, 5.0 g/l “Total Amino Acid” (Ajinomoto Co., Inc.), 0.2 g/l phytic acid, 2.4 g/l magnesium sulfate and 1.0 g/l ammonium sulfate (pH 5.0).
as §1, §2, §3

O=C(N[C@H](CO)[C@H](O)c1ccc([N+](=O)[O-])cc1)C(Cl)Cl [CP, chloramphenicol]
length of the cellulose-producing bacterium, up to, relative to bacteria cultured in no CP medium ([1]; CP 0.1 to 1.0 mM, static culture): 8 to 12 times
change of length of the cellulose-producing bacterium with increasing concentration ([1]; static culture): increased

CCn1cc(C(=O)O)c(=O)c2ccc(C)nc21 [NA, nalidixic acid]
production of bacterial cellulose with increasing NA concentration [2]: inhibited
lengthening of bacterium compared with no addition of NA ([1]; 0.1 mM NA, static culture 2 days): 2 to 4 times
change of length of the cellulose-producing bacteria ([1]; agitation culture 180 rpm, 0.10 or 0.20 mM NA): increased

O[C@H](CS)[C@H](O)CS (racemic) [DTT, dithiothreitol]
length of the bacterium as fraction of the bacteria cultured in no DTT medium ([1]; 1.0 mM DTT, static culture 2 days): ⅓ to ½
change of length of the cellulose-producing bacterium with increasing concentration ([1]; static culture): decreased
